Our source for the solubility and IC50 values is publication PMC10342533, “Novel Tetrazole Derivatives Targeting Tubulin Endowed with Antiproliferative Activity against Glioblastoma Cells” (International Journal of Molecular Sciences, 2023).

In brackets after ≈: the same amount, converted by molar mass.

Data set [1] can be described thus: Aqueous solubility, shake-flask method, phosphate buffer pH 7.4. The data set is classed as physicochemical. To be noted: thermodynamic from solid, phosphate buffer pH 7.4, shake-flask, mean ± SD of three experiments. As to the method: The aqueous solubility of tetrazole derivatives was determined by the shaking flask methodology in phosphate buffer at pH 7.4, microfiltration, and quantification of the saturated solutions via UV spectroscopy. […] The introduction of polar groups on the 3-indole position was favorable since the most soluble compounds were the oximes 16–19 (38–53 µg/mL), followed by the carbaldehyde series 12–15 (33–45 µg/mL), and the carbonitrile derivatives (25–40 µg/mL), whereas the unsubstituted indoles 8–11 were the least soluble series (19–35 µg/mL).
The aqueous solubility of the compounds was determined using the saturation shake-flask method. First, calibration lines at the maximum wavelength of absorbance were determined for each compound. Then, 5 mg of each compound was suspended in 500 µL of pH 7.4 buffer, and the resulting mixture was shaken for 72 h at room temperature and filtrated over a […] filter to remove the insoluble fraction. The concentration of the compound in the supernatant (saturated solution) was determined by measuring UV absorbance at the maximum wavelength of absorbance and interpolation in the calibration line. A Helios Alfa Spectrophotometer was used for the UV measurements. The aqueous solubility values are given as the average of three independent experiments.

Data set [2] relates to HeLa (cervix epithelioid carcinoma). The data set is described as follows: Cell growth inhibition, MTT assay, HeLa. The data set is classed as cell-based. Conditions: Homo sapiens. As to the method: (§1) The ability of the synthesized compounds to inhibit the cell proliferation of human cancer cell lines was assayed by measuring cell viability through the use of the MTT method 72 h after treatment. For this purpose, representative cell lines of the most frequent kinds of cancer were selected, including the following: HeLa (cervix epithelioid carcinoma), MCF7 (breast adenocarcinoma), U87 MG (glioblastoma), T98G (temozolomide resistant glioblastoma), HepG2 (hepatocellular carcinoma), HCT8 (colorectal carcinoma), and HT-29 (colon adenocarcinoma).
(§2) The cell lines were obtained from ATTC (Manassas, VA, USA). […] The cells were periodically tested for Mycoplasma infection by using a MycoAlert kit (Lonza, Norwest, Australia), and only Mycoplasma-free cells were used in the experiments.
(§3) Then, every compound was added (10 µL/well) to a final concentration of 10 µM. Untreated cells were used as negative controls. The antiproliferative activity of compounds was measured 72 h after drug exposure through the MTT assay. […] For this purpose, compounds were used at different concentrations, ranging from 10^−10 to 10^−2 M. Measurements were performed in triplicate, and each experiment was repeated three times. The IC50 values were determined using Origin software (version 9.6, OriginLab, Washington, DC, USA).

The subject of data set [3] is MCF7 (breast adenocarcinoma). The data set is described as follows: Cell growth inhibition, MTT assay, MCF7. To be noted: Homo sapiens. It is filed as cell-based. As to the method: as §1, §2, §3
A further data set relates to U87 MG (glioblastoma). The data set is described as follows: Cell growth inhibition, MTT assay, U87 MG. The data set is classed as cell-based. To be noted: Homo sapiens, U-87 MG. The procedure:
as §1, §2, §3

Data set [4] deals with HepG2 (hepatocellular carcinoma). The data set is described as follows: Cell growth inhibition, MTT assay, HepG2. It is filed as cell-based. Conditions: Homo sapiens. As to the method: as §1, §2, §3
Background: Formazan colour is commonly taken as a measure of viable cells.

Data set [5] relates to HCT8 (colorectal carcinoma). The data set is described as follows: Cell growth inhibition, MTT assay, HCT8. It is filed as cell-based. To be noted: Homo sapiens. As to the method: as §1, §2, §3
Data set [6] has as its system HT-29 (colon adenocarcinoma). The data set is described as follows: Cell growth inhibition, MTT assay, HT-29, without or with verapamil. It is filed as cell-based, human. As to the method:
as §1
Multidrug resistance (MDR) proteins, especially P-glycoprotein (P-gp), are often involved in resistance mechanisms affecting tubulin-binding drugs that are frequently related to the failure of cancer therapies. […] These pumps are also part of the blood–brain barrier.
as §2, §3

Data set [7] deals with T98G (temozolomide resistant glioblastoma). The data set is described as follows: Cell growth inhibition, MTT assay, T98G. It is filed as cell-based. Conditions: Homo sapiens. As to the method: as §1, §2, §3
Data set [8] has as its system HEK-293 (embryonic kidney). The data set is described as follows: Cell growth inhibition, MTT assay, non-tumor HEK-293. It is filed as cell-based. Conditions: Homo sapiens. The procedure:
The ability of the synthesized compounds to inhibit the cell proliferation of human cancer cell lines was assayed by measuring cell viability through the use of the MTT method 72 h after treatment. For this purpose, representative cell lines of the most frequent kinds of cancer were selected, including the following: HeLa (cervix epithelioid carcinoma), MCF7 (breast adenocarcinoma), U87 MG (glioblastoma), T98G (temozolomide resistant glioblastoma), HepG2 (hepatocellular carcinoma), HCT8 (colorectal carcinoma), and HT-29 (colon adenocarcinoma). […] The compounds were also tested against the non-tumor HEK-293 cells to study their selectivity toward cancer cells. […] The cell lines were obtained from ATTC (Manassas, VA, USA). […] The cells were periodically tested for Mycoplasma infection by using a MycoAlert kit (Lonza, Norwest, Australia), and only Mycoplasma-free cells were used in the experiments. […] Louis, MO, USA), which was dissolved in PBS at 5 mg/mL in accordance with the manufacturer's instructions. […] Untreated cells were used as negative controls. The antiproliferative activity of compounds was measured 72 h after drug exposure through the MTT assay. […] For this purpose, compounds were used at different concentrations, ranging from 10^-10 to 10^-2 M. Measurements were performed in triplicate, and each experiment was repeated three times. The IC50 values were determined using Origin software (version 9.6, OriginLab, Washington, DC, USA).

The target in data set [9] is T1, microtubular protein isolated from calf brains (bovine brain tubulin) (Bos taurus, UniProt P81947+Q6B856).
T1 construct: from tissue; host or cells: calf (bovine) brain
T1 sequence (Q6B856 whole entry): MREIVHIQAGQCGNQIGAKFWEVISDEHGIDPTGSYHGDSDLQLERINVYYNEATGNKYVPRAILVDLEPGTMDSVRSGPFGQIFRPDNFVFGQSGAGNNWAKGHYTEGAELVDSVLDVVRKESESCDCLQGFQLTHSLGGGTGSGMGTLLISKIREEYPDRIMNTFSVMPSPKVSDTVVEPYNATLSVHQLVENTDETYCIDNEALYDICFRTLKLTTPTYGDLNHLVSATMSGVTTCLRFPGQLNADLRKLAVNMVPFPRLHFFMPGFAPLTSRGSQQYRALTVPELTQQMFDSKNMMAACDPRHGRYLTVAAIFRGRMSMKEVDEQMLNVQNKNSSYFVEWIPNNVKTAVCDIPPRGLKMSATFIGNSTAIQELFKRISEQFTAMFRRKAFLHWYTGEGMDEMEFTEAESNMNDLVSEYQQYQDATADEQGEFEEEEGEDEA
T1 sequence (P81947 whole entry): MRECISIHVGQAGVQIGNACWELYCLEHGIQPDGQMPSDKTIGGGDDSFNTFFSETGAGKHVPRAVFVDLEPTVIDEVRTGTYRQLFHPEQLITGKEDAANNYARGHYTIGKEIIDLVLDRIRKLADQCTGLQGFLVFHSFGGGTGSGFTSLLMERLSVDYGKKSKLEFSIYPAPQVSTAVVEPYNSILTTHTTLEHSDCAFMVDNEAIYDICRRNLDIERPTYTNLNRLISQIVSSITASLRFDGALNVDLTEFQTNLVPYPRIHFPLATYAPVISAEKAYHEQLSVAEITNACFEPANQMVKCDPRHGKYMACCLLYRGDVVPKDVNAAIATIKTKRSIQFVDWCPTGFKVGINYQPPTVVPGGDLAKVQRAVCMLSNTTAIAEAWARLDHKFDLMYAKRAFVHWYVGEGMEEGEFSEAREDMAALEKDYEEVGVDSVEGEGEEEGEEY
The data set is described as follows: Tubulin polymerization inhibition (TPI). The data set is classed as biochemical. Conditions: in vitro tubulin polymerization, mean ± SD. The procedure: We evaluated the capacity of the new synthesized compounds to inhibit the polymerization of microtubular protein isolated from calf brains. The assays were performed by taking absorbance measurements to quantify the amount of polymer mass formed in the presence (or absence; negative controls) of the compounds.
Bovine brain tubulin was isolated as previously described by following a modified version of the Shelanski method. The protein was stored at −80 °C, and its concentration was determined by employing the Bradford method before each use. […] Tubulin polymerization, caused when heating the samples, was accompanied by an increase in the absorbance (at 450 nm) of the sample that was monitored by using a Helios α spectrophotometer. […] Measurements were performed in triplicate in two independent experiments using microtubular proteins from different preparations.

[10] abbreviates: HCT-8, 72 h after drug exposure.
Where [11] appears, read: Homo sapiens, HT-29, 72 h after drug exposure.
Setting [12] is: Homo sapiens, HT-29, mean ± SD, Table S1.
Where [13] appears, read: mean ± SD, Table S1, in the presence of verapamil (10 µM).
Setting [14] is: HEK293, 72 h, non-tumorigenic cell line.

For the compound `COc1ccc(S(=O)(=O)Nc2cccnc2Nc2ccc(O)cc2)cc1` [ABT-751, reference compound], the solubility (as a rule, the concentration that dissolves in the medium under given conditions) at 72 h in data set [1] was determined as 0.04 ± 0.0003 mg/mL (≈ 108 µM). For the same compound, the IC50 – broadly, the concentration needed to halve the response being measured – in data set [2] (72 h after drug exposure) stood at 0.388 µM; in data set [2] (mean ± SD, Table S1), 0.389 ± 0.0039 µM; in data set [3] (72 h after drug exposure), 0.18 µM; in [3] (mean ± SD, Table S1) it was 0.18 ± 0.0028 µM; with U87 MG (glioblastoma) (mean ± SD, Table S1), 0.375 ± 0.0054 µM; in data set [4] (mean ± SD, Table S1), 0.3271 ± 0.0011 µM. Moreover, the IC50 came to 0.209 µM in [5] (setting [10]); 0.2091 ± 0.002 µM in data set [5] (HCT-8, mean ± SD, Table S1); 0.213 µM in data set [6] (setting [11]); 0.2135 ± 0.0021 µM in data set [6] (setting [12]); 0.25 ± 0.0029 µM in [6] (setting [13]).
In data set [1], `COc1ccc(/C=C\c2cc(OC)c(OC)c(OC)c2)cc1O` [CA-4, combretastatin A4, reference compound] yielded a solubility at 72 h of 0.0011 ± 0.0001 mg/mL (≈ 3.48 µM). The IC50 came to 0.002 µM in [2] (72 h after drug exposure); 0.001 µM in data set [3] (72 h after drug exposure); 0.0014 ± 0.0001 µM in data set [3] (mean ± SD, Table S1); 0.01 µM with U87 MG (glioblastoma) (72 h after drug exposure); 0.0101 ± 0.0001 µM in the data set with U87 MG (glioblastoma) (mean ± SD, Table S1); 0.017 µM in data set [7] (72 h, 72 h after drug exposure). Moreover, the IC50 worked out at 0.0171 ± 0.0002 µM in data set [7] (mean ± SD, Table S1); 0.013 µM in data set [4] (72 h after drug exposure); 0.0134 ± 0.0002 µM in data set [4] (mean ± SD, Table S1); 0.22 µM in data set [5] (setting [10]); 0.2204 ± 0.002 µM in [5] (HCT-8, mean ± SD, Table S1); 0.305 µM in [6] (setting [11]). Also, the figures for the IC50 in [6] (setting [12]), in [6] (setting [13]) and in [8] (setting [14]) were 0.3054 ± 0.0025 µM, 0.3275 ± 0.0022 µM and 0.721 µM, respectively.
With `Cn1ccc2cc(-n3nnnc3-c3cc(Cl)nc(Cl)c3)ccc21` [Compound 8, 5-(5-(2,6-dichloropyridin-4-yl)-1H-tetrazol-1-yl)-1-methyl-1H-indole], the solubility at 72 h in data set [1] came to 0.0193 ± 0.0001 mg/mL (≈ 55.9 µM). Also, the half-inhibitory concentration (IC50) in [2] (72 h after drug exposure) stood at 0.045 µM; in [2] (mean ± SD, Table S1), 0.0451 ± 0.0003 µM; in data set [3] (72 h after drug exposure) it was 0.043 µM; in data set [3] (mean ± SD, Table S1) it was 0.0432 ± 0.0004 µM; with U87 MG (glioblastoma) (72 h after drug exposure) it was 0.032 µM; with U87 MG (glioblastoma) (mean ± SD, Table S1), 0.0324 ± 0.0002 µM. The IC50 was 0.041 µM in data set [7] (72 h, 72 h after drug exposure); 0.049 µM in data set [4] (72 h after drug exposure); 0.0491 ± 0.0005 µM in data set [4] (mean ± SD, Table S1); 0.049 µM in data set [5] (setting [10]); 0.0494 ± 0.0003 µM in data set [5] (HCT-8, mean ± SD, Table S1); 0.0523 ± 0.0004 µM in data set [6] (setting [12]). Moreover, the results for the IC50 in data set [6] (setting [13]), in data set [8] (setting [14]) and in data set [9] were 0.0524 ± 0.0002 µM, 4.72 µM and 2.8 ± 0.1 µM, respectively.
Turning to `COc1cc(-c2nnnn2-c2ccc3c(ccn3C)c2)cc(Cl)n1` [Compound 9, 5-(5-(2-chloro-6-methoxypyridin-4-yl)-1H-tetrazol-1-yl)-1-methyl-1H-indole], the solubility at 72 h in data set [1] was 0.0354 ± 0.0002 mg/mL (≈ 104 µM). The half-inhibitory concentration (IC50) in data set [2] (72 h after drug exposure) was 0.072 µM; in [2] (mean ± SD, Table S1) it was 0.0725 ± 0.0004 µM; in data set [3] (72 h after drug exposure), 0.069 µM; in data set [3] (mean ± SD, Table S1), 0.0693 ± 0.0005 µM; in the data set with U87 MG (glioblastoma) (72 h after drug exposure), 0.048 µM; with U87 MG (glioblastoma) (mean ± SD, Table S1), 0.0481 ± 0.0004 µM. For the same compound, the IC50 was 0.054 µM in data set [7] (72 h, 72 h after drug exposure); 0.0544 ± 0.0005 µM in data set [7] (mean ± SD, Table S1); 0.07 µM in data set [4] (72 h after drug exposure); 0.0705 ± 0.0005 µM in data set [4] (mean ± SD, Table S1); 0.075 µM in data set [5] (setting [10]); 0.0754 ± 0.0006 µM in data set [5] (HCT-8, mean ± SD, Table S1). The IC50 in [6] (setting [11]) was found to be 0.081 µM; in data set [6] (setting [12]), 0.0811 ± 0.0005 µM; in [6] (setting [13]), 0.0802 ± 0.0006 µM; in data set [8] (setting [14]), 5.2 µM; in data set [9], 3.1 ± 0.2 µM.
With `Cn1nnc2c(C(N)=O)ncn2c1=O` [TMZ, temozolomide, reference compound], the IC50 in data set [2] (72 h after drug exposure) was greater than 10 µM; in [2] (heading: IC50 HeLa, mean ± SD, Table S1), greater than 10 µM; in data set [3] (72 h after drug exposure), greater than 10 µM; in data set [3] (heading: IC50 MCF7, mean ± SD, Table S1), greater than 10 µM; with U87 MG (glioblastoma) (72 h, 72 h after drug exposure), greater than 100 µM; in data set [4] (72 h after drug exposure), greater than 10 µM. In addition, the IC50 in data set [4] (heading: IC50 HepG2, mean ± SD, Table S1) is greater than 10 µM; in data set [5] (setting [10]), greater than 10 µM; in [5] (HCT-8, heading: IC50 HCT8, mean ± SD, Table S1), greater than 10 µM; in [6] (setting [12]), greater than 0.01 µM; in data set [8] (setting [14]), greater than 10 µM; in data set [8] (HEK293, heading: IC50 HEK-293, mean ± SD, Table S1, non-tumorigenic cell line), greater than 10 µM.
